Experiments:
[1] = log P by HPLC on reversed phase columns (EEC directive 79/831 Annex V.A8); format: physicochemical; details: pH 2.7, 0.1% formic acid in water / acetonitrile gradient
Procedure: Measurement of log P values was performed according EEC directive 79/831 Annex V.A8 by HPLC (High Performance Liquid Chromatography) on reversed phase columns with the following method:
measurement of LC-MS was done at pH 2.7 with 0.1% formic acid in water and with acetonitrile (contains 0.1% formic acid) as eluent with a linear gradient from 10% acetonitrle to 95% acetonitrile.
Calibration was done with not branched alkan2-ones (with 3 to 16 carbon atoms) with known log P-values (measurement of log P values using retention times with linear interpolation between successive alkanones). lambda-maX-values were determined using UV-spectra from 200 nm to 400 nm and the peak values of the chromatographic signals.

Phytophthora infestans = format: in vivo; details: tomato, preventive spray, 100 ppm of active ingredient, evaluated 7 days after inoculation
Plasmopara viticola = experiment: Plasmopara test (grapevines) / preventive; format: in vivo; details: preventive spray, 10 ppm of active ingredient, evaluated 6 days after inoculation
Procedure: Plasmopara Test (Grapevines)/Preventive
To produce a suitable preparation of active compound, 1 part by weight of active compound is mixed with the stated amounts of solvent and emulsifier, and the concentrate is diluted with water to the desired concentration.
To test for preventive activity, young plants are sprayed with the preparation of active compound at the stated rate of application. After the spray coating has dried on, the plants are inoculated with an aqueous spore suspension of Plasmopara viticola and then remain for 1 day in an incubation cabinet at approximately 20° C. and a relative atmospheric humidity of 100%. The plant is subsequently placed for 4 days in a greenhouse at approximately 21° C. and a relative atmospheric humidity of approximately 90%. The plants are then misted and placed for 1 day in an incubation cabinet.
The test is evaluated 6 days after the inoculation. 0% means an efficacy which corresponds to that of the untreated control, while an efficacy of 100% means that no disease is observed.

Row | Structure (SMILES) | logp [1] | Efficacy % (Phytophthora infestans) | Efficacy % (Plasmopara viticola)
1 | Cn1nnnc1C(=NOCc1cccc(NC(=O)C2CC(=O)c3cc(F)ccc3O2)n1)c1ccccc1 (centres unmarked) [Example 1] | 3.46 | 93% | –
2 | Cn1nnnc1C(=NOCc1cccc(NC(=O)C2CCc3cc(I)ccc3O2)n1)c1ccccc1 (centres unmarked) [Example 2] | 4.7 | 95% | –
3 | COc1cccc2c1OC(C(=O)Nc1cccc(CON=C(c3ccccc3)c3nnnn3C)n1)CC2 (centres unmarked) [Example 3] | 3.92 | 95% | –
4 | Cn1nnnc1C(=NOCc1cccc(NC(=O)C2CCc3cc(F)ccc3O2)n1)c1ccccc1 (centres unmarked) [Example 4] | 4.01 | 95% | –
5 | Cn1nnnc1C(=NOCc1cccc(NC(=O)C2CCc3ccccc3O2)n1)c1ccccc1 (centres unmarked) [Example 5] | 4.01 | 95% | 89%
6 | Cn1nnnc1C(=NOCc1cccc(NC(=O)C2COc3ccc(C(C)(C)C)cc3O2)n1)c1ccccc1 (centres unmarked) [Example 6] | 4.92 | 93% | –
7 | Cc1ccc2c(c1)OC(C(=O)Nc1cccc(CON=C(c3ccccc3)c3nnnn3C)n1)CO2 (centres unmarked) [Example 7] | 4.03 | 95% | 75%
8 | Cc1cccc2c1OC(C(=O)Nc1cccc(CON=C(c3ccccc3)c3nnnn3C)n1)CO2 (centres unmarked) [Example 8] | 4.08 | 95% | 87%
9 | Cn1nnnc1C(=NOCc1cccc(NC(=O)C2COc3ccccc3O2)n1)c1ccccc1 (centres unmarked) [Example 9] | 3.69 | 85% | 97%
10 | Cc1ccc2c(c1)OC(C(=O)Nc1nc(CON=C(c3ccccc3)c3nnnn3C)cs1)CO2 (centres unmarked) [Example 12] | 3.78 | 95% | –
11 | Cc1cccc2c1OC(C(=O)Nc1nc(CON=C(c3ccccc3)c3nnnn3C)cs1)CO2 (centres unmarked) [Example 13] | 3.83 | 98% | –
12 | Cn1nnnc1C(=NOCc1csc(NC(=O)C2COc3ccccc3O2)n1)c1ccccc1 (centres unmarked) [Example 14] | 3.46 | 90% | –
13 | Cn1nnnc1C(=NOCc1csc(NC(=O)C2COc3ccc(C(C)(C)C)cc3O2)n1)c1ccccc1 (centres unmarked) [Example 15] | 4.62 | 90% | –
14 | Cn1nnnc1C(=NOCc1csc(NC(=O)C2CC(=O)c3cc(F)ccc3O2)n1)c1ccccc1 (centres unmarked) [Example 16] | 3.29 | 93% | –
15 | Cn1nnnc1C(=NOCc1csc(NC(=O)C2CCc3cc(I)ccc3O2)n1)c1ccccc1 (centres unmarked) [Example 17] | 4.44 | 93% | –
16 | COc1cccc2c1OC(C(=O)Nc1nc(CON=C(c3ccccc3)c3nnnn3C)cs1)CC2 (centres unmarked) [Example 18] | 3.64 | 95% | –
17 | Cn1nnnc1C(=NOCc1csc(NC(=O)C2CCc3cc(F)ccc3O2)n1)c1ccccc1 (centres unmarked) [Example 19] | 3.8 | 95% | –
18 | Cn1nnnc1C(=NOCc1csc(NC(=O)C2CCc3ccccc3O2)n1)c1ccccc1 (centres unmarked) [Example 20] | 3.78 | 93% | –
19 | Cc1nnnn1C(=NOCc1cccc(NC(=O)C2CCc3cc(I)ccc3O2)n1)c1ccccc1 (centres unmarked) [Example 21] | 4.81 | 80% | –
20 | COc1cccc2c1OC(C(=O)Nc1cccc(CON=C(c3ccccc3)n3nnnc3C)n1)CC2 (centres unmarked) [Example 22] | 3.99 | 80% | –
21 | Cc1nnnn1C(=NOCc1cccc(NC(=O)C2CCc3cc(F)ccc3O2)n1)c1ccccc1 (centres unmarked) [Example 23] | 4.11 | 90% | –
22 | Cc1nnnn1C(=NOCc1cccc(NC(=O)C2CCc3ccccc3O2)n1)c1ccccc1 (centres unmarked) [Example 24] | 4.08 | 93% | –
23 | Cc1nnnn1C(=NOCc1cccc(NC(=O)C2COc3ccc(C(C)(C)C)cc3O2)n1)c1ccccc1 (centres unmarked) [Example 25] | 5.03 | 93% | –
24 | Cc1ccc2c(c1)OC(C(=O)Nc1cccc(CON=C(c3ccccc3)n3nnnc3C)n1)CO2 (centres unmarked) [Example 26] | 4.11 | 95% | –
25 | Cc1cccc2c1OC(C(=O)Nc1cccc(CON=C(c3ccccc3)n3nnnc3C)n1)CO2 (centres unmarked) [Example 27] | 4.15 | 95% | –
26 | Cc1nnnn1C(=NOCc1cccc(NC(=O)C2COc3ccccc3O2)n1)c1ccccc1 (centres unmarked) [Example 28] | 3.78 | 98% | –

Row | Structure (SMILES) | logp [1] | Efficacy % (Phytophthora infestans) | Efficacy % (Plasmopara viticola)
27 | Cc1nnnn1C(=NOCc1cccc(NC(=O)C2CC(=O)c3cc(F)ccc3O2)n1)c1ccccc1 (centres unmarked) [Example 29] | 3.53 | 90% | –
28 | COc1cccc2c1OC(C(=O)Nc1nc(CON=C(c3ccccc3)n3nnnc3C)cs1)CC2 (centres unmarked) [Example 30] | 3.69 | 95% | –
29 | Cc1nnnn1C(=NOCc1csc(NC(=O)C2CCc3cc(F)ccc3O2)n1)c1ccccc1 (centres unmarked) [Example 31] | 3.87 | 95% | –
30 | Cc1nnnn1C(=NOCc1csc(NC(=O)C2CCc3ccccc3O2)n1)c1ccccc1 (centres unmarked) [Example 32] | 3.83 | 95% | –
31 | Cc1nnnn1C(=NOCc1csc(NC(=O)C2COc3ccc(C(C)(C)C)cc3O2)n1)c1ccccc1 (centres unmarked) [Example 33] | 4.67 | 90% | –
32 | Cc1ccc2c(c1)OC(C(=O)Nc1nc(CON=C(c3ccccc3)n3nnnc3C)cs1)CO2 (centres unmarked) [Example 34] | 3.83 | 95% | –
33 | Cc1cccc2c1OC(C(=O)Nc1nc(CON=C(c3ccccc3)n3nnnc3C)cs1)CO2 (centres unmarked) [Example 35] | 3.87 | 95% | –
34 | Cc1nnnn1C(=NOCc1csc(NC(=O)C2COc3ccccc3O2)n1)c1ccccc1 (centres unmarked) [Example 36] | 3.51 | 95% | –
35 | Cc1nnnn1C(=NOCc1csc(NC(=O)C2CC(=O)c3cc(F)ccc3O2)n1)c1ccccc1 (centres unmarked) [Example 37] | 3.33 | 95% | –
36 | Cc1nnnn1C(=NOCc1csc(NC(=O)C2CCc3cc(I)ccc3O2)n1)c1ccccc1 (centres unmarked) [Example 38] | 4.49 | 95% | –
37 | COc1ccc2c(c1)OC(C(=O)Nc1cccc(CON=C(c3ccccc3)c3nnnn3C)n1)CC2 (centres unmarked) [Example 39] | 3.96 | 95% | –
38 | COc1ccc2c(c1)OC(C(=O)Nc1nc(CON=C(c3ccccc3)c3nnnn3C)cs1)CC2 (centres unmarked) [Example 40] | 3.78 | 98% | 96%
39 | Cn1nnnc1C(=NOCc1csc(NC(=O)C2Cc3ccccc3O2)n1)c1ccccc1 (centres unmarked) [Example 42] | 3.39 | 89% | 100%
40 | Cc1nnnn1C(=NOCc1cccc(NC(=O)c2cc(=O)c3ccccc3o2)n1)c1ccccc1 [Example 43] | 3.33 | 85% | –
41 | Cc1nnnn1C(=NOCc1csc(NC(=O)c2cc(=O)c3ccccc3o2)n1)c1ccccc1 [Example 44] | 3.21 | 95% | –
42 | Cc1nnnn1C(=NOCc1csc(NC(=O)C2Cc3ccccc3O2)n1)c1ccccc1 (centres unmarked) [Example 45] | 3.44 | 98% | 96%
43 | Cc1nnnn1C(=NOCc1csc(NC(=O)C2Oc3ccccc3O2)n1)c1ccccc1 [Example 46] | 3.31 | 75% | –
44 | Cn1nnnc1C(=NOCc1csc(NC(=O)c2cc(=O)c3ccccc3o2)n1)c1ccccc1 [Example 47] | 3.17 | 70% | –
45 | Cn1nnnc1C(=NOCc1csc(NC(=O)C2Oc3ccccc3O2)n1)c1ccccc1 [Example 48] | 3.29 | 80% | –
46 | Cn1nnnc1C(=NOCc1csc(NC(=O)C2COc3ccccc32)n1)c1ccccc1 (centres unmarked) [Example 49] | 3.19 | – | –
47 | Cc1nnnn1C(=NOCc1cccc(NC(=O)C2Cc3ccccc3O2)n1)c1ccccc1 (centres unmarked) [Example 56] | 3.71 | 100% | 85%
48 | Cc1nnnn1C(=NOCc1cccc(NC(=O)C2Oc3ccccc3O2)n1)c1ccccc1 [Example 57] | 3.48 | 88% | –
49 | Cc1nnnn1C(=NOCc1cccc(NC(=O)C2COc3ccccc32)n1)c1ccccc1 (centres unmarked) [Example 58] | 3.39 | – | –
50 | Cn1nnnc1C(=NOCc1cccc(NC(=O)c2cc(=O)c3ccccc3o2)n1)c1ccccc1 [Example 59] | 3.27 | 95% | –
51 | Cn1nnnc1C(=NOCc1cccc(NC(=O)C2Oc3ccccc3O2)n1)c1ccccc1 [Example 60] | 3.44 | 95% | 97%
52 | Cn1nnnc1C(=NOCc1cccc(NC(=O)C2COc3ccccc32)n1)c1ccccc1 (centres unmarked) [Example 61] | 3.37 | – | –
